Source: patent publication US4774381A, “Herbicide resistant tobacco” (E. I. Du Pont de Nemours and Company, priority 1985, dated 1988)

Assays:
[1] = system: S4/S4 callus; test: Callus growth test with chlorsulfuron and structural analogues; format: cell-based, Nicotiana tabacum; details: 10 ppb compound, 2 weeks in the dark
Experimental: (§1) In these growth tests, petri dishes containing C1 agar medium and 10 ppb of the sulfonamide herbicide chlorsulfuron and Compounds A through E were prepared. A sterile filter paper disc was placed in the center of each plate, and inoculated with 250 mg of callus tissue homozygous for the S4 mutation, or callus tissue derived from the haploid parent H1. The resulting cultures were incubated at 25° in the dark for 2 weeks. At the conclusion of the incubation period, filter discs containing callus cells were removed from culture dishes, placed on a Buchner funnel, and gentle suction applied to remove excess water. The resulting callus mass was then carefully scraped from the filter disc and weighed. Four replicates were included in each experiment.

[2] = system: H1 (parent) callus; test: as above; format: cell-based, Nicotiana tabacum; details: 10 ppb compound, 2 weeks in the dark
Experimental: as §1

[3] = system: "resistant" regenerated plants; details: paraquat 10^-5 M; cited from earlier work
[4] = system: control plants; details: paraquat 10^-5 M; cited from earlier work
[5] = system: picloram-tolerant tobacco mutants; details: cited from earlier work

| Compound | Mean Fresh Weight [1] | Mean Fresh Weight [2] | further results |
| --- | --- | --- | --- |
| Cc1cc(C)nc(NC(=O)NS(=O)(=O)c2ccccc2Cl)n1 [A] | 5.16 g | 0 g |  |
| COc1cc(C)nc(NC(=O)NS(=O)(=O)c2ccccc2Cl)n1 [B] | 5.60 g | 0 g |  |
| COc1cc(OC)nc(NC(=O)NS(=O)(=O)c2ccccc2Cl)n1 [C] | 5.08 g | 0 g |  |
| Cc1nc(C)nc(NC(=O)NS(=O)(=O)c2ccccc2Cl)n1 [D] | 4.53 g | 0 g |  |
| COc1nc(NC(=O)NS(=O)(=O)c2ccccc2Cl)nc(OC)n1 [E] | 4.97 g | 0 g |  |
| C[n+]1ccc(-c2cc[n+](C)cc2)cc1 [paraquat] |  |  | time for leaves to bleach to white [3]: 4 to 7 days; time for leaves to bleach to white (average) [4]: 3.5 days |
| Nc1c(Cl)c(Cl)nc(C(=O)O)c1Cl [picloram, 4-amino-3,5,6-trichloropicolinic acid] |  |  | seed germination ([5]; 100 μM picloram, seeds of tolerant mutants): germinated; plantlet development ([5]; one month's exposure to 50 μM picloram, plantlets homozygous for tolerance mutations): developed stem callus tissue and degenerated |
